Reference: ChEMBL document CHEMBL1154313, “Synthesis, antiproliferative, and pharmacokinetic properties of 3- and 17-double-modified analogs of 2-methoxyestradiol” (Bioorg Med Chem Lett, 2009)
Active and inactive are the calls of the source. The rule behind the calls is not given here.

How the values were obtained:
HUVEC [1] = experiment: Ratio of 2ME2 IC50 to compound IC50 for antiangiogenic activity against HUVEC; type: functional, Homo sapiens
HUVEC [2] = experiment: Antiangiogenic activity against HUVEC assessed as growth inhibition after 48 hrs by WST1 assay; type: functional, cell-based; settings: Homo sapiens
MDA-MB-231 [3] = experiment: Antiproliferative activity against human MDA-MB-231 cells after 48 hrs by WST1 assay; type: functional, cell-based; settings: MDA-MB-231, 48 h
MDA-MB-231 [4] = experiment: Ratio of 2ME2 IC50 to compound IC50 for human MDA-MB-231 cells; type: functional
MCF7 = experiment: Antiproliferative activity against human MCF7 cells after 48 hrs by WST1 assay; type: functional, cell-based
[5] = Half life in CD1 mouse at 45 mg/m'2 of body surface, po administered as single dose; type: ADME, organism-based; settings: in vivo
[6] = AUC (0 to infinity) in CD1 mouse at 45 mg/m'2 of body surface, po administered as single dose; type: ADME, organism-based; parameters: time infinity, route oral; settings: plasma
Mus musculus [7] = experiment: Ratio of compound Cmax to 2ME2 Cmax in CD1 mouse at 45 mg/m'2 of body surface, po administered as single dose; type: ADME, organism-based; settings: in vivo
Mus musculus [8] = experiment: Ratio of compound AUC (0 to infinity) to 2ME2 AUC (0 to infinity) in CD1 mouse at 45 mg/m'2 of body surface, po administered as single dose; type: ADME, organism-based; settings: in vivo
[9] = Cmax in CD1 mouse at 45 mg/m'2 of body surface, po administered as single dose; type: ADME, organism-based; parameters: route oral; settings: in vivo
HUVEC [10] = experiment: Ratio of compound IC50 to 2ME2 IC50 for antiangiogenic activity against HUVEC; type: functional, Homo sapiens
MDA-MB-231 [11] = experiment: Ratio of compound IC50 to 2ME2 IC50 for human MDA-MB-231 cells; type: functional

Compound | Ratio IC50 (HUVEC [1]) | IC50 (HUVEC [2]) | IC50 (MDA-MB-231 [3]) | Ratio IC50 (MDA-MB-231 [4]) | Activity (MCF7) | half-life [5] | AUC(0-inf) [6] | Ratio (Mus musculus [7]) | Ratio (Mus musculus [8]) | Cmax [9] | Ratio IC50 (HUVEC [10]) | Ratio IC50 (MDA-MB-231 [11])
C=C1CC[C@H]2[C@@H]3CCc4cc(NC=O)c(OC)cc4[C@H]3CC[C@]12C | 3 | 0.22 µM | 0.3 µM | 2 | Active |  |  |  |  |  |  | 
COc1cc2c(cc1N)CC[C@@H]1[C@@H]2CC[C@]2(C)C(=O)CC[C@@H]12 |  | 23.4 µM | 46.9 µM |  | Active |  |  |  |  |  |  | 
CCNC(=O)c1cc2c(cc1OC)[C@H]1CC[C@]3(C)CCC[C@H]3[C@@H]1CC2 |  | 38 µM | 53 µM |  | Active |  |  |  |  |  |  | 
COc1cc2c(cc1NC#N)CC[C@@H]1[C@@H]2CC[C@]2(C)C(=O)CC[C@@H]12 |  | 0.25 µM | 0.2 µM |  | Active |  |  |  |  |  |  | 
C/C=C1\CC[C@H]2[C@@H]3CCc4cc(N)c(OC)cc4[C@H]3CC[C@]12C |  | 0.72 µM | 1.94 µM |  | Active |  |  |  |  |  |  | 
COc1cc2c(cc1C(N)=O)CC[C@@H]1[C@@H]2CC[C@]2(C)C=CC[C@@H]12 | 5 | 0.13 µM | 0.2 µM | 6 | Active | 2.1 h | 3.36 µM·h | 5 | 23 | 1430 nM |  | 
COc1cc2c(cc1C(N)=O)CC[C@@H]1[C@@H]2CC[C@]2(C)C(=O)CC[C@@H]12 |  | 5.46 µM | 2.2 µM |  | Active |  |  |  |  |  | 8 | 
C/C=C1\CC[C@H]2[C@@H]3CCc4cc(NC=O)c(OC)cc4[C@H]3CC[C@]12C | 3 | 0.58 µM | 0.56 µM | 2 | Active |  |  |  |  |  |  | 
COC(=O)Nc1cc2c(cc1OC)[C@H]1CC[C@]3(C)C(=O)CC[C@H]3[C@@H]1CC2 |  | 8.22 µM | 5.6 µM |  | Active |  |  |  |  |  |  | 
COc1cc2c(cc1N)CC[C@@H]1[C@@H]2CC[C@]2(C)CCC[C@@H]12 |  | 4.72 µM | 7.38 µM |  | Active |  |  |  |  |  |  | 
COc1cc2c(cc1C(N)=O)CC[C@@H]1[C@@H]2CC[C@]2(C)CCC[C@@H]12 |  | 1.19 µM | 1.86 µM |  | Active | 1.1 h | 2.53 µM·h |  |  | 504 nM | 8 | 3
COc1cc2c(cc1NC=O)CC[C@@H]1[C@@H]2CC[C@]2(C)[C@@H](C)CC[C@@H]12 | 3 | 0.59 µM | 0.61 µM | 2 | Active |  |  |  |  |  |  | 
COc1cc2c(cc1NC(C)=O)CC[C@@H]1[C@@H]2CC[C@]2(C)CCC[C@@H]12 |  | 1.68 µM | 9.25 µM |  | Active |  |  |  |  |  |  | 
C=C1CC[C@H]2[C@@H]3CCc4cc(C(N)=O)c(OC)cc4[C@H]3CC[C@]12C | 5 | 0.25 µM | 0.12 µM | 6 | Active | 4.8 h | 3.2 µM·h |  |  | 334 nM |  | 
COC(=O)Oc1cc2c(cc1OC)[C@H]1CC[C@]3(C)C(=O)CC[C@H]3[C@@H]1CC2 |  | 32.9 µM | 25 µM |  | Active |  |  |  |  |  |  | 
COc1cc2c(cc1N)CC[C@@H]1[C@@H]2CC[C@]2(C)[C@@H](C)CC[C@@H]12 |  | 2.65 µM | 7.31 µM |  | Active |  |  |  |  |  |  | 
C=C1CC[C@H]2[C@@H]3CCc4cc(N)c(OC)cc4[C@H]3CC[C@]12C |  | 1 µM | 2.11 µM |  | Active |  |  |  |  |  |  | 
COc1cc2c(cc1O)CC[C@@H]1[C@@H]2CC[C@]2(C)[C@@H](O)CC[C@@H]12 [2-METHOXYESTRADIOL] |  | 0.68 µM | 0.79 µM |  | Active | 0.3 h | 0.142 µM·h |  |  | 294 nM |  | 
C=Cc1cc2c(cc1OC)[C@H]1CC[C@]3(C)CCC[C@H]3[C@@H]1CC2 |  | 0.58 µM | 1.86 µM |  | Active |  |  |  |  |  |  | 
COc1cc2c(cc1NC=O)CC[C@@H]1[C@@H]2CC[C@]2(C)C(=O)CC[C@@H]12 | 3 | 0.53 µM | 1.22 µM |  | Active |  |  |  |  |  |  | 10
COc1cc2c(cc1NC(N)=O)CC[C@@H]1[C@@H]2CC[C@]2(C)C(=O)CC[C@@H]12 |  | 0.61 µM | 0.71 µM |  | Active |  |  |  |  |  |  | 
COc1cc2c(cc1NC=O)CC[C@@H]1[C@@H]2CC[C@]2(C)CCC[C@@H]12 |  | 5.8 µM | 8.29 µM |  | Active |  |  |  |  |  | 8 | 10
